Measured values: ChEMBL document CHEMBL1201862, “PubChem BioAssay data set” (2004)
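Each compound was tested at five concentrations against cells in 96-well plates for 48 hours. GI50 marks 50% less growth.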 Active and inactive are the calls of the source. Cut-off read from the data, not from the text of the source: active = GI50 up to about 1.1 µM and inactive = higher. Square brackets hold non-standard residues; d marks the D form. Peptide text beside a SMILES is read from it. 2Nal = N[CH](Cc1ccc2ccccc2c1)C(=O)O

What was measured:
Assay in all cases: NCI anticancer screen, dose series, 48 h
SK-OV-3 = tested on: SK-OV-3
SNB-75 = tested on: SNB-75
MDA-MB-231 = tested on: MDA-MB-231
EKVX = tested on: EKVX
KM12 = tested on: KM12
M14 = tested on: M14
RXF 393 = tested on: RXF 393
SR = tested on: SR
DU-145 = tested on: DU-145
SK-MEL-28 = tested on: SK-MEL-28
DLD-1 = tested on: DLD-1
BT-549 = tested on: BT-549
ACHN = tested on: ACHN
MOLT-4 = tested on: MOLT-4
HOP-92 = tested on: HOP-92
LOX IMVI = tested on: LOX IMVI
SW-620 = tested on: SW-620
MDA-MB-435 = tested on: MDA-MB-435
PC-3 = tested on: PC-3
K562 = tested on: K562

| Structure (SMILES) | GI50 (SK-OV-3) | GI50 (SNB-75) | GI50 (MDA-MB-231) | GI50 (EKVX) | GI50 (KM12) | GI50 (M14) | GI50 (RXF 393) | GI50 (SR) | GI50 (DU-145) | GI50 (SK-MEL-28) | GI50 (DLD-1) | GI50 (BT-549) | GI50 (ACHN) | GI50 (MOLT-4) | GI50 (HOP-92) | GI50 (LOX IMVI) | GI50 (SW-620) | GI50 (MDA-MB-435) | GI50 (PC-3) | GI50 (K562) |
| --- | --- | --- | --- | --- | --- | --- | --- | --- | --- | --- | --- | --- | --- | --- | --- | --- | --- | --- | --- | --- |
| NCCNc1ccc(NCCN)c2c1C(=O)c1c(O)ccc(O)c1C2=O | 0.0266 µM (active) | 0.0162 µM (active) | 0.681 µM (active) | 0.436 µM (active) | 0.118 µM (active) | 0.0149 µM (active) | 0.0719 µM (active) | < 0.001 µM (active) | 0.109 µM (active) | 1.07 µM (active) | 0.0336 µM (active) | 0.653 µM (active) | 0.00542 µM (active) | < 0.001 µM (active) | 6.86 nM (active) | 0.007 µM (active) | 0.0246 µM (active) | 1.15 µM (inactive) | 0.205 µM (active) | – |
| O=C[C@@H](CO)O[C@H](C=O)n1cnc2c(=O)nc[nH]c21 | 501 µM (inactive) | 667 µM (inactive) | 128 µM (inactive) | 357 µM (inactive) | 335 µM (inactive) | 505 µM (inactive) | 239 µM (inactive) | 181 µM (inactive) | 261 µM (inactive) | 369 µM (inactive) | 77.8 µM (inactive) | 282 µM (inactive) | 540 µM (inactive) | 123 µM (inactive) | 153000 nM (inactive) | 86.9 µM (inactive) | 126 µM (inactive) | 243 µM (inactive) | 376 µM (inactive) | 83.9 µM (inactive) |
| Cc1nc2ccc(NCCN(C)C)c3c(=O)c4cc(O)ccc4n1c23 | 0.845 µM (active) | 0.418 µM (active) | 2.56 µM (inactive) | – | 0.783 µM (active) | 2.67 µM (inactive) | – | < 0.01 µM (active) | 1.46 µM (inactive) | 3.03 µM (inactive) | 0.148 µM (active) | 3.45 µM (inactive) | 0.103 µM (active) | 0.0164 µM (active) | 1120 nM (active) | 0.379 µM (active) | 0.122 µM (active) | 1.82 µM (inactive) | 0.653 µM (active) | 0.298 µM (active) |
| CC(C)C(NC(=O)C(CCCCN)NC(=O)C(Cc1c[nH]c2ccccc12)NC(=O)C(Cc1ccc(O)cc1)NC(=O)C(CS)NC(=O)C(N)Cc1ccc2ccccc2c1)C(=O)NC(CS)C(=O)NC(C(N)=O)C(C)O (stereo not given) (H-[2Nal]CYWKVCT-NH2; configuration not given here) | > 12.5 µM (inactive) | > 100 µM (inactive) | > 12.5 µM (inactive) | > 12.5 µM (inactive) | > 12.5 µM (inactive) | > 12.5 µM (inactive) | > 12.5 µM (inactive) | > 12.5 µM (inactive) | > 12.5 µM (inactive) | > 100 µM (inactive) | > 100 µM (inactive) | – | > 12.5 µM (inactive) | > 12.5 µM (inactive) | < 10 nM (active) | > 12.5 µM (inactive) | > 12.5 µM (inactive) | > 12.5 µM (inactive) | > 12.5 µM (inactive) | – |
